≈ marks a conversion by molar mass, not a printed value.
Tested on: Streptococcus pyogenes
Assay: In vitro minimum inhibitory concentration (MIC) vs. Strep. pyogenes
Assay type: cell-based
Settings: Streptococcus pyogenes, read-out: MIC vs. Strep. pyogenes
Description: The antibacterial penam compounds of the instant invention show activity against a wide variety of gram-positive and gram-negative bacteria. […] The broth is inoculated with the bacterial culture, and with the test antibiotic, and then it is incubated overnight. On the next day, the test is read visually. The minimum inhibitory concentration (MIC) is the lowest concentration of antibiotic which prevents turbidity, i.e., which prevents growth of the microorganism. In vitro activities of several of the penam compounds of the invention are presented later in this specification.
In Table II, the minimum inhibitory concentrations (MIC's) of compounds of formula I, wherein R^2 is hydrogen, against a strain of Streptococcus pyogenes, are reported; and in Table III, minimum inhibitory concentrations of compounds of formula I, wherein R^2 is hydrogen, against a strain of Staphylococcus aureus, are presented. Because of the tautomeric nature of such tetrazole derivatives, referred to hereinbefore,each of the preparations tested also contains some of the corresponding compound of formula II, wherein R^3 is hydrogen.

SMILES	MIC [µg/mL]
CC1(C)S[C@@H]2[C@H](NC(=O)[C@H](NC(=O)CNS(=O)(=O)Cc3ccccc3)c3ccccc3)C(=O)N2[C@H]1c1nn[nH]n1	< 0.1
CCOC(=O)C(=O)N[C@@H](C(=O)N[C@@H]1C(=O)N2[C@@H]1SC(C)(C)[C@@H]2c1nnn[nH]1)c1ccccc1	< 0.1
Cc1cc(C(=O)NC(=O)N[C@@H](C(=O)N[C@@H]2C(=O)N3[C@@H]2SC(C)(C)[C@@H]3c2nn[nH]n2)c2ccccc2)on1	< 0.1
CC1(C)S[C@@H]2[C@H](NC(=O)[C@H](NC(=O)CCNC(=O)c3ccc(Cl)cc3)c3ccccc3)C(=O)N2[C@H]1c1nnn[nH]1	< 0.1
CC1(C)S[C@@H]2[C@H](NC(=O)[C@H](NC(=O)CNC(=O)c3ccc(Cl)cc3)c3ccccc3)C(=O)N2[C@H]1c1nnn[nH]1	0.1 (≈ 0.176 µM)
CC1(C)S[C@@H]2[C@H](NC(=O)[C@H](NC(=O)CCNC(=O)c3ccccc3)c3ccccc3)C(=O)N2[C@H]1c1nnn[nH]1	< 0.1
CC1(C)S[C@@H]2[C@H](NC(=O)[C@H](NC(=O)NC(=O)Cc3ccccc3)c3ccccc3)C(=O)N2[C@H]1c1nn[nH]n1	< 0.1
COc1ccc(C(=N)NC(=O)NCC(=O)N[C@@H]2C(=O)N3[C@@H]2SC(C)(C)[C@@H]3c2nnn[nH]2)cc1	0.1 (≈ 0.211 µM)
CC1(C)S[C@@H]2[C@H](NC(=O)[C@H](NC(=O)NC(=O)c3ccco3)c3ccccc3)C(=O)N2[C@H]1c1nn[nH]n1 [D-2-(3-[2-furoyl]ureido)-2-phenylacetyl, 6-(D-2-[3-(2-Furoyl)ureido]-2-phenylacetamido)-2,2-dimethyl-3-(5-tetrazolyl)penam]	< 0.1
CC1(C)S[C@@H]2[C@H](NC(=O)[C@H](NC(=O)c3cccs3)c3ccccc3)C(=O)N2[C@H]1c1nnn[nH]1	< 0.1
CC1(C)S[C@@H]2[C@H](NC(=O)Cc3sccc3CN)C(=O)N2[C@H]1c1nnn[nH]1 [2-(3-aminomethyl-2-thienyl)-acetyl, 6-(2-[3-Aminomethyl-2-thienyl]acetamido)-2,2-dimethyl-3-(5-tetrazolyl)penam]	≤ 0.1
CN(C)C=N[C@@H](C(=O)N[C@@H]1C(=O)N2[C@@H]1SC(C)(C)[C@@H]2c1nnn[nH]1)c1ccccc1 [6-(D-2-[Dimethylaminomethyleneamino]-2-phenylacetamido)-2,2-dimethyl-3-(5-tetrazolyl)penam]	< 0.1
CC1(C)S[C@@H]2[C@H](NC(=O)[C@H](NC(=O)NC(N)=O)c3ccccc3)C(=O)N2[C@H]1c1nnn[nH]1 [D-2-allophanamido-2-phenylacetyl, 6-(D-2-Allophanamido-2-phenylacetamido)-2,2-dimethyl-3-(5-tetrazolyl)penam]	< 0.1
CC1(C)S[C@@H]2[C@H](NC(=O)[C@H](NC(=O)CCNC(=O)c3cccc(Cl)c3)c3ccccc3)C(=O)N2[C@H]1c1nnn[nH]1	< 0.1
CC(=O)NCC(=O)N[C@@H](C(=O)N[C@@H]1C(=O)N2[C@@H]1SC(C)(C)[C@@H]2c1nn[nH]n1)c1ccccc1	< 0.1
CC1(C)S[C@@H]2[C@H](NC(=O)[C@H](NS(=O)(=O)c3ccccc3)c3ccc(O)cc3)C(=O)N2[C@H]1c1nn[nH]n1 [6-(D-2-[Benzenesulfonamido]-2-[p-hydroxyphenyl]acetamido)-2,2-dimethyl-3-(5-tetrazolyl)penam]	< 0.1
CC(=N)NCC(=O)N[C@@H]1C(=O)N2[C@@H]1SC(C)(C)[C@@H]2c1nnn[nH]1 [2-(acetamidino)acetyl]	< 0.1
CC1(C)S[C@@H]2[C@H](NC(=O)[C@H](NC(=O)CNS(C)(=O)=O)c3ccccc3)C(=O)N2[C@H]1c1nn[nH]n1	< 0.1
CC1(C)S[C@@H]2[C@H](NC(=O)[C@H](NC(=O)CNC(=N)c3nc4ccccc4[nH]3)c3ccccc3)C(=O)N2[C@H]1c1nnn[nH]1	< 0.1
CC1(C)S[C@@H]2[C@H](NC(=O)[C@H](NC(=O)CNC(=O)c3ccc([N+](=O)[O-])cc3)c3ccccc3)C(=O)N2[C@H]1c1nnn[nH]1	< 0.1
CCC(=O)NCC(=O)N[C@@H](C(=O)N[C@@H]1C(=O)N2[C@@H]1SC(C)(C)[C@@H]2c1nn[nH]n1)c1ccccc1	< 0.1
CCNC(=N)NC(=O)NCC(=O)N[C@@H](C(=O)N[C@@H]1C(=O)N2[C@@H]1SC(C)(C)[C@@H]2c1nn[nH]n1)c1ccccc1	< 0.1
CCOC(=O)CC(=O)N[C@@H](C(=O)N[C@@H]1C(=O)N2[C@@H]1SC(C)(C)[C@@H]2c1nnn[nH]1)c1ccccc1	< 0.1
CCNC(=O)NCC(=O)N[C@@H](C(=O)N[C@@H]1C(=O)N2[C@@H]1SC(C)(C)[C@@H]2c1nnn[nH]1)c1ccccc1 [6-(D-2-[2-(3-Ethylureiod)acetamido]-2-phenylacetamido)-2,2-dimethyl-3-(5-tetrazolyl)penam]	< 0.1
CCNC(=O)N[C@@H]1C(=O)N2[C@@H]1SC(C)(C)[C@@H]2c1nnn[nH]1 [3-ethylcarbamoyl, 6-(3-ethylureido)-2,2-dimethyl-3-(5-tetrazolyl)penam]	< 0.1
CCC(=O)NC(=O)N[C@@H](C(=O)N[C@@H]1C(=O)N2[C@@H]1SC(C)(C)[C@@H]2c1nn[nH]n1)c1ccccc1 [2-(3-propionylureido)-2-phenylacetyl]	< 0.1
CC1(C)S[C@@H]2[C@H](NC(=O)Cc3ccc(CN)cc3)C(=O)N2[C@H]1c1nnn[nH]1 [2-(4-aminomethylphenyl)acetyl, 6-(2-[4-Aminomethylphenyl]acetamido)-2,2-dimethyl-3-(5-tetrazolyl)penam]	< 0.1
CC1(C)S[C@@H]2[C@H](NC(=O)Cc3ccccc3CN)C(=O)N2[C@H]1c1nnn[nH]1 [2-(o-[aminomethyl]phenyl)acetyl, 6-[2-[o-(aminomethyl)phenyl]acetamido]-2,2-dimethyl-3-(5-tetrazolyl)penam]	< 0.1
CC1(C)S[C@@H]2[C@H](NC(=O)Cc3ccc(CN=[N+]=[N-])s3)C(=O)N2[C@H]1c1nnn[nH]1 [2-(5-azidomethyl-2-thienyl)-acetyl, 6-(2-[5-Azidomethyl-2-thienyl]acetamido)-2,2-dimethyl-3-(5-tetrazolyl)penam]	≤ 0.1

Same assay, conditions: Streptococcus pyogenes; Examples; read-out: MIC against Strep. pyogenes

SMILES	MIC [µg/mL]
CC1(C)S[C@@H]2[C@H](NC(=O)[C@H](NC(=O)Nc3ccccc3)c3ccc(O)cc3)C(=O)N2[C@H]1c1nnn[nH]1 [6-(2-[3-Phenylureido]-2-[p-hydroxyphenyl]acetamido)-2,2-dimethyl-3-(5-tetrazolyl)penam]	< 0.1

Same assay, conditions: Streptococcus pyogenes; Table II; two-fold serial dilution, Brain-Heart Infusion broth, overnight; read-out: MIC vs. Strep. pyogenes

MIC [µg/mL]	SMILES
0.78 (≈ 1.46 µM)	CC1(C)S[C@@H]2[C@H](NC(=O)[C@H](NC(=O)CNC(=N)c3ncccn3)c3ccccc3)C(=O)N2[C@H]1c1nnn[nH]1
0.78 (≈ 1.27 µM)	CC1(C)S[C@@H]2[C@H](NC(=O)[C@H](NC(=O)CCNC(=N)c3ccc(Cl)c(Cl)c3)c3ccccc3)C(=O)N2[C@H]1c1nnn[nH]1
50 (≈ 116 µM)	CNC(=O)N[C@@H](C(=O)N[C@@H]1C(=O)N2[C@@H]1SC(C)(C)[C@@H]2c1nnn[nH]1)c1ccccc1 [D-2-(3-methylureido)-2-phenylacetyl]
< 0.1	CC1(C)S[C@@H]2[C@H](NC(=O)/C=C\C(N)=O)C(=O)N2[C@H]1c1nnn[nH]1 [3-(carbamoyl)acryloyl, 6-(3-[Carbamoyl]acrylamido)-2,2-dimethyl-3-(5-tetrazolyl)penam]
1.56 (≈ 3.72 µM)	CC1(C)S[C@@H]2[C@H](NC(=O)CSc3ccccc3CN)C(=O)N2[C@H]1c1nnn[nH]1 [2-(2-[aminomethyl]phenylthio)acetyl]
1.56 (≈ 2.62 µM)	CC1(C)S[C@@H]2[C@H](NC(=O)[C@H](NC(=O)CCNC(=N)Cc3ccc(Cl)cc3)c3ccccc3)C(=O)N2[C@H]1c1nnn[nH]1
1.56 (≈ 2.92 µM)	CC1(C)S[C@@H]2[C@H](NC(=O)[C@H](NC(=O)c3ccc(NC(=N)N)cc3)c3ccccc3)C(=O)N2[C@H]1c1nn[nH]n1 [6-(D-2-[p-Guanidinobenzamido]-2-phenylacetamido)-2,2-dimethyl-3-(5-tetrazolyl)penam]
0.39 (≈ 0.734 µM)	CCNC(=S)NCCC(=O)N[C@@H](C(=O)N[C@@H]1C(=O)N2[C@@H]1SC(C)(C)[C@@H]2c1nnn[nH]1)c1ccccc1
0.2 (≈ 0.327 µM)	CC1(C)S[C@@H]2[C@H](NC(=O)[C@H](NC(=O)CNC(=O)NC(=N)NCC3CCCCC3)c3ccccc3)C(=O)N2[C@H]1c1nn[nH]n1
0.2 (≈ 0.407 µM)	CC1(C)S[C@@H]2[C@H](NC(=O)C(Cc3ccccc3)NC(=N)c3ccncc3)C(=O)N2[C@H]1c1nnn[nH]1 (stereo partly drawn)
0.2 (≈ 0.438 µM)	CC1(C)S[C@@H]2[C@H](NC(=O)[C@H](NC(=O)CN=[N+]=[N-])c3ccccc3)C(=O)N2[C@H]1c1nnn[nH]1 [D-2-(2-azicoacetamido)-2-phenylacetyl]
0.78 (≈ 1.35 µM)	CC1(C)S[C@@H]2[C@H](NC(=O)[C@H](NC(=O)CNC(=O)NC(=N)c3ccccc3)c3ccccc3)C(=O)N2[C@H]1c1nnn[nH]1
0.004 (≈ 0.00908 µM)	CC1(C)S[C@@H]2[C@H](NC(=O)[C@H](NC(=O)CC#N)c3ccccc3)C(=O)N2[C@H]1c1nnn[nH]1 [D-2-(2-cyanoacetamido)-2-phenylacetyl]
0.2 (≈ 0.363 µM)	CC1(C)S[C@@H]2[C@H](NC(=O)[C@H](NC(=O)CNC(=O)NS(C)(=O)=O)c3ccccc3)C(=O)N2[C@H]1c1nnn[nH]1
1.56 (≈ 4.13 µM)	CC1(C)S[C@@H]2[C@H](NC(=O)NC(=O)c3ccco3)C(=O)N2[C@H]1c1nn[nH]n1 [N-(2-furoyl)carbamoyl]
0.004 (≈ 0.00659 µM)	CC1(C)S[C@@H]2[C@H](NC(=O)[C@H](NC(=O)CNC(=O)NC(=N)NCc3ccncc3)c3ccccc3)C(=O)N2[C@H]1c1nn[nH]n1
0.004 (≈ 0.00665 µM)	CCCCN=C(NCCCC)SCC(=O)N[C@@H](C(=O)N[C@@H]1C(=O)N2[C@@H]1SC(C)(C)[C@@H]2c1nn[nH]n1)c1ccccc1

Same assay, conditions: Streptococcus pyogenes; Table IV; read-out: MIC vs. Strep. pyogenes

MIC [µg/mL]	SMILES
12.5 (≈ 42.3 µM)	CN(C)C=N[C@@H]1C(=O)N2[C@@H]1SC(C)(C)[C@@H]2c1nnn[nH]1 [6-([Dimethylamino]methyleneamino)-2,2-dimethyl-3-(5-tetrazolyl)penam]
